For one compound, IC50 results are on record in article PMC8619920, “New Polyesterified Ursane Derivatives from Leaves of Maesa membranacea and Their Cytotoxic Activity” (Molecules, 2021).

Holding throughout (assay type): cell-based
In assay [1] the test system is HT29 human colon adenocarcinoma cells. The experiment in a line: Cytotoxicity, LDH assay, HT29 cells. The note with it: Homo sapiens, HT-29; 24 h treatment, 5–100 μg/mL. The procedure: (§1) Cytotoxic activity was tested on human cancer and normal cells, grouped in three panels, namely: prostate, skin and gastrointestinal. The prostate panel consisted of prostate cancer cell lines Du145 (ATCC HTB-81) and PC3 (ATCC CRL-1435), and prostate epithelial cells PNT-2 (ECACC 95012613). Melanoma cell lines A375 (ATCC CRL-1619) and HTB140 (ATCC Hs 294T) together with skin keratinocytes HaCaT (obtained as a kind gift of prof. Marta Michalik, Department of Cell Biology, Jagiellonian University, Kraków, Poland) were included into the skin panel. The gastrointestinal panel of cells comprised colon cancer cell lines Caco-2 (ATCC HTB-37) and HT29 (ATCC HTB-38). Du145 cells were grown in Modified Eagle’s Medium with low (1.0 g/L) glucose concentration, HT29, PC3 and PNT-2 cells in Dulbecco’s Modified Eagle’s Media: F12 HAM Nutrient Mixture, Caco-2 in Modified Eagle’s Medium with NEAA (no-essential amino acids) while melanoma cells and keratinocytes were maintained in Modified Eagle’s Medium with high (4.5 g/L) glucose concentration. The culture media (all supplied by Sigma-Aldrich Co.; St. Louis, MO, USA) contained antibiotics and 10% fetal bovine serum (FBS). All cultures were maintained at 37 °C, in a humidified, 5% CO2 containing, atmosphere.
(§2) The examined triterpenes were diluted in the culture media from freshly made stock solutions in MeOH (10 mg/mL) to the working concentrations (from 0 to 100 μg/mL).
(§3) Cell viability was determined as it was described previously. Cells suspended in the nutrient medium were transferred into 96-well microtiter plates (density 1.5 × 10^4 per well), and preincubated for 24 h (37 °C, 5% CO2). Then, the culture medium was replaced with the medium containing different concentrations of 1 or 2 (1–100 μg/mL). After 24 h of incubation, viability of the cells was determined using colorimetric lactate dehydrogenase (LDH) assay, in comparison to the controls to which corresponding aliquots of MeOH diluted with culture media were added. Cells grown in the medium without the tested compounds were used as control I (negative) and the positive control (control II) was obtained by incubation of the cells in the medium containing 1% Triton X-100. LDH released from the damaged cells into the cell culture medium was quantified by measuring the absorbance at 490 nm using Synergy II Biotek (BioTek Instruments, Winooski, VT, USA) microplate reader. Cytotoxicities of the examined compounds were calculated as follows: [(absorbance of the tested sample − absorbance of control I)/(absorbance of control II − absorbance of control I)] × 100. Results were means of three independent measurements (± SD). Doxorubicin (Ebewe Pharma GmbH., Unterach, Austria) was used as a reference cytostatic drug. The IC50 values were determined by plotting the percentage viability of the cells versus concentration and the adequate calculations made using AAT Bioquest website program (https://www.aatbio.com/tools/ic50-calculator, accessed on 29 October 2021).

The subject of assay [2] is PNT-2 human normal prostate epithelium cells. Put plainly: Cytotoxicity, LDH assay, PNT-2 cells. The note with it: Homo sapiens, PNT2; 24 h treatment, 5–100 μg/mL. As for the experimental part:
as §1, §2, §3

The subject of assay [3] is A375 human malignant melanoma cells. Put plainly: Cytotoxicity, LDH assay, A375 cells. The settings on record: Homo sapiens, A-375; 24 h treatment, 5–100 μg/mL. The procedure:
as §1, §2, §3

Assay [4] concerns Caco-2 human colon adenocarcinoma cells. Put plainly: Cytotoxicity, LDH assay, Caco-2 cells. The settings on record: Homo sapiens, Caco-2, 24 h, 24 h treatment, 5–100 μg/mL. The procedure:
as §1, §2, §3

For assay [5], the system named is PC3 human prostate adenocarcinoma cells. The experiment in a line: Cytotoxicity, LDH assay, PC3 cells. The note with it: Homo sapiens, PC-3, 24 h, 24 h treatment, 5–100 μg/mL. The procedure:
as §1, §2, §3

Assay [6] has as its system DU145 human prostate carcinoma cells. Put plainly: Cytotoxicity, LDH assay, DU145 cells. The note with it: Homo sapiens, DU-145, 24 h, 24 h treatment, 5–100 μg/mL. As for the experimental part: as §1, §2, §3

In the case of `COc1cccc2c1C(=O)c1c(O)c3c(c(O)c1C2=O)C[C@@](O)(C(=O)CO)C[C@@H]3O[C@H]1C[C@H](N)[C@H](O)[C@H](C)O1` [Doxorubicin, reference compound], the concentration for half-maximal inhibition (IC50) in assay [1] is 1.53 µg/mL; in assay [2], 1.38 µg/mL; in assay [3] it was 0.59 µg/mL; in assay [4], 3.44 µg/mL; in assay [5] it was above 50 µg/mL; in assay [6], 3.18 µg/mL.

As a reminder, the IC50 is the concentration at which inhibition is half-maximal.
